From the NIST ThermoML archive (doi:10.1021/je060271a)

Settings: 303.15 K, Liquid, Vibrating tube method

CCCCCCC(=O)OCC(COC(=O)CCCCCC)(COC(=O)CCCCCC)COC(=O)CCCCCC [pentaerythritol tetraheptanoate]
Settings	mass density [kg/m3]
21619 kPa	983.7
21662 kPa	983.7
21713 kPa	983.7
21752 kPa	983.7
21789 kPa	983.5
21831 kPa	983.9
21867 kPa	983.8
21902 kPa	983.8
22017 kPa	983.9
22097 kPa	984
22133 kPa	983.9
22169 kPa	984.1
22213 kPa	984
22250 kPa	983.9
22286 kPa	984.1
22330 kPa	984.1
22368 kPa	984.2
22406 kPa	984.1
22450 kPa	984.2
22567 kPa	984.2
22651 kPa	984.2
22689 kPa	984.3
22735 kPa	984.3
22774 kPa	984.3
22813 kPa	984.3
22853 kPa	984.3
22901 kPa	984.4
23031 kPa	984.5
23066 kPa	984.4
23098 kPa	984.5
23130 kPa	984.5
23162 kPa	984.4
23201 kPa	984.5
23233 kPa	984.6
23266 kPa	984.7
23304 kPa	984.6
23337 kPa	984.5
23376 kPa	984.7
23409 kPa	984.6
23442 kPa	984.6
23475 kPa	984.8
23516 kPa	984.8
23549 kPa	984.7
23582 kPa	984.8
23622 kPa	984.7
23797 kPa	984.9
23831 kPa	985
23873 kPa	984.9
23908 kPa	985
23943 kPa	985
23985 kPa	985
24019 kPa	984.9
24054 kPa	985
24201 kPa	985.1
24243 kPa	985.2
24278 kPa	985.2
24320 kPa	985.2
24392 kPa	985.2
24436 kPa	985.2
24472 kPa	985.4
24509 kPa	985.1
24545 kPa	985.2
24588 kPa	985.3
24624 kPa	985.4
24661 kPa	985.3
24706 kPa	985.3
24743 kPa	985.5
24780 kPa	985.5
24825 kPa	985.4
24863 kPa	985.4
24901 kPa	985.4
24947 kPa	985.5
24984 kPa	985.5
25022 kPa	985.6
25060 kPa	985.5
25106 kPa	985.6
25144 kPa	985.5
25182 kPa	985.7
25228 kPa	985.7
25267 kPa	985.6
25306 kPa	985.6
25353 kPa	985.7
25392 kPa	985.7
25431 kPa	985.8
25472 kPa	985.7
25520 kPa	985.8
25560 kPa	986
25601 kPa	986
25648 kPa	985.9
25688 kPa	985.8
25729 kPa	985.9
25778 kPa	985.9
25818 kPa	986
25860 kPa	986
25901 kPa	986.1
25951 kPa	986
25994 kPa	986
26038 kPa	986
26079 kPa	986.1
26130 kPa	986.1
26172 kPa	986.2
26215 kPa	986.2
26266 kPa	986.2
26309 kPa	986.3
26347 kPa	986.3
26391 kPa	986.3
26429 kPa	986.4
26466 kPa	986.4
26512 kPa	986.4
26551 kPa	986.4
26590 kPa	986.3
26628 kPa	986.5
